What was measured:
DrPARG [1] = biological target: T1, DrPARG (Deinococcus radiodurans, UniProt Q9RZM4); assay: CD thermal denaturation at […] nm; type: binding; details: 10 µM protein, 30 µM ADP-ribose, 20 mM phosphate pH 7.5; printed as "increased Tm by 46.5 °C", read as Tm of complex
T1 construct: gene DR_B0099, pET28a, E. coli BL21(DE3); N-terminal His-tag cut with thrombin, GSHM left at N terminus; monomer, Mr 32 kDa; residues 100-110 GGGFLGGAQAQ
T1 sequence (Q9RZM4 1-285): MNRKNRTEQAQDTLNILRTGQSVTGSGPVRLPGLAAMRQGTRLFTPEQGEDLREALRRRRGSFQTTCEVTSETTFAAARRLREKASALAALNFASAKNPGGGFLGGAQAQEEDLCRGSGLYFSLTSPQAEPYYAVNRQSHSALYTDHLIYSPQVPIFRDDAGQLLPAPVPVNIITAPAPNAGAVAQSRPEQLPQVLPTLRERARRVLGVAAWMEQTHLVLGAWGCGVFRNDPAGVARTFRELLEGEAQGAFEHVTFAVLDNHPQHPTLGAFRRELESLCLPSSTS

DrPARG [2] = biological target: T2, DrPARG (Deinococcus radiodurans, UniProt Q9RZM4, T267R); assay: isothermal titration calorimetry; details: 25 °C, 20 mM Tris-HCl pH 7.0, 100 mM NaCl; independent binding model
T2 construct: gene DR_B0099, pET28a, E. coli BL21(DE3); N-terminal His-tag cut with thrombin, GSHM left at N terminus; monomer, Mr 32 kDa; residues 100-110 GGGFLGGAQAQ
Source text: (§1) isothermal titration calorimetry on DrPARG

DrPARG [3] = biological target: T3, DrPARG (Deinococcus radiodurans, UniProt Q9RZM4, E112A); assay: isothermal titration calorimetry; details: 25 °C, 20 mM Tris-HCl pH 7.0, 100 mM NaCl; independent binding model
T3 construct: gene DR_B0099, pET28a, E. coli BL21(DE3); N-terminal His-tag cut with thrombin, GSHM left at N terminus; monomer, Mr 32 kDa; residues 100-110 GGGFLGGAQAQ
Source text: as §1

DrPARG [4] = biological target: T4, DrPARG (Deinococcus radiodurans, UniProt Q9RZM4, T267K); assay: isothermal titration calorimetry; details: 25 °C, 20 mM Tris-HCl pH 7.0, 100 mM NaCl; independent binding model
T4 construct: gene DR_B0099, pET28a, E. coli BL21(DE3); N-terminal His-tag cut with thrombin, GSHM left at N terminus; monomer, Mr 32 kDa; residues 100-110 GGGFLGGAQAQ
Source text: as §1

DrPARG [5] = biological target: T1, DrPARG; assay: isothermal titration calorimetry; details: 25 °C, 20 mM Tris-HCl pH 7.0, 100 mM NaCl; independent binding model; complex also as PDB 5ZDC, 5ZDD, 5ZDE
Source text: as §1

T4 sequence (Q9RZM4 entry or part of it T267K): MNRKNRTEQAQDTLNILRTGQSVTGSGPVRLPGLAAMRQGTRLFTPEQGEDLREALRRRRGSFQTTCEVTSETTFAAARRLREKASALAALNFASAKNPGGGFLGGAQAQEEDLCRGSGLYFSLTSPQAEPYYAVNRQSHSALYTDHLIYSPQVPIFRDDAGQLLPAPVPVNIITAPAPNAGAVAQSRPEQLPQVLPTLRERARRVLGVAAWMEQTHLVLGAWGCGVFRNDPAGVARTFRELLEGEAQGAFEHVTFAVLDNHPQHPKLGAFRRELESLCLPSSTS
T2 sequence (Q9RZM4 entry or part of it T267R): as the sequence (Q9RZM4 entry or part of it T267K) above, with K267R counted along it
T3 sequence (Q9RZM4 entry or part of it E112A): as the sequence (Q9RZM4 entry or part of it T267K) above, with E112A, K267T counted along it

Tm with ligand (apo 45.2) (DrPARG [1]): 46.5 °C | Kd (DrPARG [2]): 3760 ± 470 nM | Kd (DrPARG [3]): 2020 ± 70 nM | Kd (DrPARG [4]): 1980 ± 20 nM | Kd (DrPARG [5]): 1780 ± 50 nM
Compound: Nc1ncnc2c1ncn2[C@@H]1O[C@H](COP(=O)(O)OP(=O)(O)OC[C@H]2OC(O)[C@H](O)[C@@H]2O)[C@@H](O)[C@H]1O (some centres unmarked) [ADP-ribose]
